Four compounds from patent US9642835B2, “Modulators of GTPase and use in relevant treatment” (STC.UNM, priority 2010, dated 2017) can be followed below.

Structures are written as SMILES.

The target in experiment [1] is T1, Cdc42 GTPase in Swiss 3T3 cells (Mus musculus, UniProt P60766).
T1 construct: endogenous in cells; host or cells: Swiss 3T3 cells
As to the kind of experiment: GLISA. Type of experiment: cell-based. The following applies: approximately 10 μM. How it is done:
Swiss 3T3 cells were continuously passaged at subconfluence and used to monitor the capacity of compounds to block stimulus-mediated activation of Cdc42, Rac1 or RhoA in vivo. Commercial GLISA kits customized to capture activated Cdc42, Rac1 or Rho from cell lysates were used per manufacturer's instructions (Cytoskeleton, Inc.). Cells were serum starved by sequentially removing serum over a three day period and treated with DMSO or 10 μM compound in DMSO for 20-30 min. Subsequently samples were treated with EGF (10 ng/ml for Rac1 and 100 ng/ml for Cdc42) for 2 min to activate Rac1 and Cdc42 or 5 U/ml calpeptin for 10 min to activate RhoA. DMSO treated cells were left unstimulated to determine baseline GTPase activation or stimulated without drug treatment to determine maximal GTPase activation. Cell lysates were snap frozen, active Cdc42 and Rac1 were quantified based on a PAK binding assay, active RhoA was quantified based on Rho GTP-binding protein interaction. All assays were performed in 96-well microtiter plates, Purified GTP-bound Cdc42, Rac1, or RhoA served as a standards to calculate ng active GTPase in the lysates.

In a further experiment the target is T2, Cdc42 WT (Homo sapiens, UniProt P60953).
T2 construct: purchased Cytoskeleton
Briefly: Bead-based flow cytometry dose response, BODIPY-FL-GTP binding. The following applies: Table 6, R3 analogs; for EC50: read-out: Cdc42 WT EC50; for Emax: read-out: Cdc42 WT Efficacy. How it is done: (§1) Bead sets for multiplex assays were custom synthesized by Duke Scientific Corp (Fremont, Calif.), but may now be ordered from Thermo/Fisher. […] Negative controls, contained the bead mixture with fluorescent GTP, 0.5 mM unlabeled GTP as a competitor, and 1% DMSO. […] The resulting time-dependent data (one file per plate) were analyzed using IDLQuery software to determine the compound activity in each well. Gating based on forward scatter (FS) and side scatter (SS) parameters was used to identify singlet bead populations. Gating based on FL8 emission distinguishes the beads coated with different proteins, and the median fluorescence per bead population was calculated. […] Baselines were set to 100% based on measurements from the 1% DMSO containing positive controls as further described in PubChem. {PubChem #72}
(§2) Briefly, compounds were serially diluted 1:3 a total of eight times from a starting concentration of 10 mM giving a 9-point dilution series in DMSO. The final concentrations of inhibitors in the assay ranged from 10 nM to 100 μM. Dose-response analyses were examined in the presence of NP-HPS buffer containing: a) 1 mM EDTA; or b) 1 mM MgCl2. […] For assays with EDTA we used one multiplex (Rab7 wt, Rab2 wt, H-Ras wt, H-RasG12V, Cdc42 wt, and Cdc42Q61L) and 3 single-plexes (for Rac1 wt, Rac1 Q61L and GST-GFP).
(§3) GTPase activators were identified on the basis of an increase in fluorescent GTP-binding.
(§4) In experiments including magnesium, six GST-GTPases were assayed simultaneously in a single multiplex (Rac1 wt, Rac1Q61L, RhoA wt, RhoAL63, Cdc42 wt and Cdc42Q61L) and 1 nM BODIPY-FL-GTP binding was measured in the presence or absence of the serial drug dilution series. Each dose response series was run in duplicate.

The next experiment deals with Cdc42 ACT (Cdc42Q61L) (Homo sapiens, UniProt P60953, Q61L). The experiment is described as above. Particulars: Table 6, R3 analogs; read-out: Cdc42 ACT EC50. As to the method: as §1, §2, §3, §4
For a further experiment, the target named is Cdc42 (Homo sapiens, UniProt P60953). As to the kind of experiment: Fluorescent-GTP binding to Cdc42 (p38 inhibitor control).
Experiment [2] relates to Cdc42, Rab2, Rab7, activated Rac1Q61L, Rac1, and H-Ras. As to the kind of experiment: Multiplexed primary screen, fluorescent GTP binding. The following applies: 10 μM compound. As to the method: Multiplex screening was performed by measuring GTP-binding activities of six GTPases (Cdc42, Rab2, Rab7, activated Rac1Q61L, Rac1, and H-Ras) simultaneously using special glutathione (GSH) bead sets having varied fluorescence intensities at a fixed wavelength^38. Individual GST-GTPase chimeras were tested against approximately 200,000 small molecules from the Molecular Libraries Small Molecule Repository (MLSMR). Results of fluorescent GTP-binding from the entire primary screen are summarized in the open access Pubchem database as required for projects conducted under the Roadmap Initiative (AID 757-761, 764). […] In total 1877 compounds/194,635 were identified as activators or inhibitors in the primary screen. On the order of 100-500 compounds were found active per GTPase target, enabling an unprecedented, comprehensive evaluation of small molecules active against various Ras-related GTPase family members. Here we report one compound active specifically on Cdc42 and structure activity relationships determined through chemical synthesis.
Multiplex analysis of small GTPases, were performed as we have described previously {Surviladze, 2009}. […] Flow cytometric light scatter and fluorescence emission at 530+/−20 nm (FL1) and 665+/−10 nm (FL8) were collected on a Cyan ADP flow cytometer (Beckman Coulter, Fullerton, Calif.). The resulting time-dependent data (one file per plate) were analyzed using IDLQuery software to determine the compound activity in each well. […] Gating based on FL8 emission distinguishes the beads coated with different proteins, and the median fluorescence per bead population was calculated. […]
For detection of GTP binding to small G-proteins we used bead-based multiplex flow cytometry assay {Surviladze, 2009}. […] Six individual GST-GTPases representative of Rho, Ras and Rab branches of the Ras-related GTPase family (Cdc42 wt, Rac1 wt, Rac1Q61L, Rab2 wt, Rab7 wt, and H-Ras wt) were first bound to GSH-beads of a particular fluorescence intensity. […]

A further experiment deals with T3, wild-type Cdc42 (Homo sapiens, UniProt P60953).
T3 construct: purchased Cytoskeleton
Briefly: Equilibrium binding assay of BODIPY-FL-GTP. Particulars: 1.5 nM substrate, 1 mM MgCl2; read-out: IC50, inhibition of fluorescent GTP binding to Cdc42 wt. How it is done: Changes in GTP binding affinity (Kd) and Bmax in the presence of a given compound were measured in multiplex (Cdc42, Cdc42Q61L, Rab2, Rab7, H-Ras and H-RasG12V) and single-plex formats (Rac1, Rac1Q61L and GST-GFP). GTPases and the GST-GFP control were individually bound to glutathione beads overnight at 4° C., washed with HPSE buffer, then resuspended together or assayed individually in the same buffer containing DTT and BSA. Bound GTPases were analyzed by mixing 5 μl protein-bound beads with 2.5-100 nM BODIPY-GTP in a total volume of 10 μl and incubating with rotation at 4° C. for 90 min. DMSO controls and samples treated with 10 μM of each test compound were run in parallel. Bound fluorescent nucleotide was measured using a Cyan ADP flow cytometer. Data were converted to ASCII format using IDLeQuery, exported and analyzed using Prism (GraphPad Software, Inc., San Diego, Calif.) non-linear, one-site binding.
Wild-type GST-Cdc42 (4 μM) was bound to GSH-beads overnight at 4° C. Cdc42 on GSH-beads was depleted of nucleotide by incubating with 10 mM EDTA containing buffer for 20 min at 30° C., washing twice with NP-HPS buffer, then re-suspended in the same buffer containing 1 mM EDTA/or 1 mM MgCl2, 1 mM DTT and 0.1% BSA. […] Samples incubated at 4° C. for 45 min and binding of fluorescent nucleotide to enzyme measured using an Accuri flow cytometer. […]

T2 sequence (P60953 whole entry): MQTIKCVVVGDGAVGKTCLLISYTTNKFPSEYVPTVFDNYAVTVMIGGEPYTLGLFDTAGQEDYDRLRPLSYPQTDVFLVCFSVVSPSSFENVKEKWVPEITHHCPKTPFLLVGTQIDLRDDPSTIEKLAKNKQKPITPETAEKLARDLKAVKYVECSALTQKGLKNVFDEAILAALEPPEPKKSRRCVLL
T1 sequence (P60766 whole entry): as the sequence (P60953 whole entry) above
Sequence of Cdc42 ACT (Cdc42Q61L) (P60953 whole entry Q61L): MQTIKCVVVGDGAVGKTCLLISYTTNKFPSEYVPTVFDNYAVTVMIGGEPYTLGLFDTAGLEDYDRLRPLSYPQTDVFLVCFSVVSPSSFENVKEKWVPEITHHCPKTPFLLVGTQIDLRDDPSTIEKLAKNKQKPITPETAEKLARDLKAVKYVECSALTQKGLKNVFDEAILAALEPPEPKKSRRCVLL
Sequence of Cdc42 (P60953 whole entry, species assumed): as the sequence (P60953 whole entry) above
T3 sequence (P60953 whole entry): as above

Regarding `Cc1cccc(C2CC(c3ccccc3)=NN2c2ccc(S(N)(=O)=O)cc2)c1` (centres unmarked) [CID 44143700, 4-[3-(3-methylphenyl)-5-phenyl-3,4-dihydropyrazol-2-yl]benzene sulfonamide], in experiment [1], the “Inhibition of Cdc42 GTPase in GLISA” value is listed as “significant response”. Moreover, on Cdc42 WT, the EC50 turned out to be 5 µM and the Emax came to 55%. Moreover, on Cdc42 ACT (Cdc42Q61L), the EC50 stood at 5.3 µM.
For `Cc1ccc(C2CC(c3ccccc3)=NN2c2ccc(S(N)(=O)=O)cc2)cc1` (centres unmarked) [CID 13927310, 4-[3-(4-methylphenyl)-5-phenyl-3,4-dihydropyrazol-2-yl]benzene sulfonamide] the same measures were “significant response”, 5 µM, 66% and 5 µM.
On to `Oc1ccc(-c2nc(-c3ccncc3)c(-c3ccc(F)cc3)[nH]2)cc1` [SB 202190], for which, on Cdc42, the “Fluorescent-GTP binding to Cdc42” value is listed as “did not inhibit”.
In the case of `COc1ccc(C2CC(c3ccccc3)=NN2c2ccc(S(N)(=O)=O)cc2)cc1OC` (centres unmarked) [MLS000862339], in experiment [2], the “Outcome of primary screening” value is given as “specific inhibitors”. For the same compound, the IC50 on wild-type Cdc42 worked out at 0.4 µM.
